According to EP0226508A1, “Indolo[3,2-c]quinoline derivatives, process for their preparation and their anti-tumour activity” (priority 1985, dated 1987):
pIC50: −log10 of the molar value.

How the values were obtained:
[1] = system: souris consanguines DBA₂ saines; assay: Acute toxicity, single intraperitoneal injection in healthy mice, mortality at day 7; format: in vivo; settings: single i.p. injection, 50 mg/kg
[2] = system: lignée tumorale leucémie L 1210; assay: In vitro cytotoxic activity on L 1210 leukemia cell culture (inhibition of cell proliferation); format: cell-based; settings: Mus musculus, L1210; L 1210 culture in exponential growth, 37°C, after 48 hours of contact; read-out: ID 50 (the source's name)
Description: 1) In vitro : (PAOLETTI et al., Chem. Biol. Interaction, 1979, 25, 45-58).
L'activité cytotoxique des composés de l'invention a été évaluée par des essais in vitro. Ces essais consistent à ajouter des concentrations croissantes du composé à tester à une culture cellulaire de la lignée tumorale leucémie L 1210 en phase exponentielle de croissance. Les cellules sont incubées à 37°C dans une étuve à CO₂ et comptées toutes les 24 heures. Le calcul de l'ID₅₀ (concentration du produit exprimée en micromole 1⁻¹ qui inhibe la prolifération cellulaire à 50 p. 100) est effectuée après 48 heures de contact. Ainsi déterminées les ID₅₀ des composés de l'invention sont rassemblées dans le tableau ci-après.

leucémie P 388 = assay: animal or person; format: in vivo, souris hybrides CDF 1; settings: for Nombre de survivants: survivors at J 40; for Variation pondérale en g: in vivo, ip
Excerpt: (§1) L'activité antitumorale a été testée in vivo sur différentes tumeurs selon le protocole général suivant:
(§2) Toutes les souris mâles ou femelles sont inoculées par voie intrapéritonéale au jour Jo avec une quantité déterminée de cellules tumorales viables, variable selon la tumeur.
(§3) Elles sont ensuite réparties en différents lots. Chaque lot correspondant aux animaux traités par le produit à tester à une dose déterminée est composé de 10 souris. Dans ce cas, le produit à tester est dissous dans l'eau distillée et il est administré, pendant n jours (J₁-Jn) variables selon le protocole choisi, par voie intrapéritonéale à raison de 0,1 ml par 10 g de poids des souris traitées, les doses du produit administré étant précisées dans les tableaux ci-dessous.
(§4) Le lot "contrôle négatif", correspondant aux animaux qui ne sont pas traités par un produit, comprend 2 √N animaux, N étant égal au nombre total de souris traitées par un produit.
(§5) Enfin, tous les essais sont conduits parallèlement à l'étude d'un lot appelé "contrôle positif" de 10 animaux qui est traité par une molécule active, variable selon le protocole choisi, dans les mêmes conditions que les lots traités par le produit à tester, afin de valider l'essai.
(§6) L'activité antitumorale est évaluée en considé-rant l'augmentation du temps de survie des animaux traités par rapport à celui des animaux du lot "contrôle négatif" selon la formule : [formula]
(§7) Un composé est considéré comme étant actif lorsque la valeur du rapport T/C est égale ou supérieure à 125 % selon le protocole retenu. Il est toxique lorsque cette valeur est égale ou inférieure à 85 %. Le produit est également considéré comme toxique lorsque la variation pondérale, exprimée en grammes et calculée par la formule : Poids moyen du lot mesuré au jour 5 -poids moyen du même lot au jour 1 est égale ou inférieure à - 4 g.
a) Test de la leucémie P 388 (GERAN et al., Cancer Chemother, 1972, 2, 07-57).
Les essais sont effectués avec des souris hybrides CDF 1 inoculées par voie intrapéritonéale avec 10⁶ cellules leucémiques de la lignée P 388. Le composé à tester est administré pendant 5 jours (J1-J5). Le contrôle positif du test est le 5-fluorouracile qui est administré dans les mêmes conditions. Le nombre d'animaux survivants est évalué au jour J 40. Un composé est considéré comme étant actif lorsque le rapport T/C est supérieur à 127 %.

leucémie L 1210 = assay: In vivo antitumour activity, L 1210 leukemia test; design: species or system souris hybrides CDF₁; settings: for Nombre de survivants: survivors at J 30
Excerpt: as §1, §2, §3, §4, §5, §6, §7
b) Test de la leucémie L 1210 (GERAN et al., Cancer Chemother, 1972, 2, 07-57).
Les essais sont effectués avec des souris hybrides CDF₁ inoculées avec 10⁵ cellules leucémiques de la lignée L 1210. Le composé à tester est administré pendant 5 jours (J₁-J₅).Le contrôle positif du test est le 5-fluorouracile administré dans les mêmes conditions. Le nombre d'animaux survivants est évalué au jour J 30. Un composé est considéré comme étant actif lorsque le rapport T/C est supérieur ou égal à 125 %.

[3] = Mus musculus, P388, ip, P 388, CDF 1 mice, 5 mg/kg i.p. J1-J5, read-out: T/C %
[4] = Mus musculus, P388, ip, P 388, CDF 1 mice, 10 mg/kg i.p. J1-J5, read-out: T/C %
[5] = Mus musculus, P388, ip, P 388, CDF 1 mice, 20 mg/kg i.p. J1-J5, read-out: T/C %
[6] = P 388, CDF 1 mice, 5 mg/kg i.p. J1-J5
[7] = P 388, CDF 1 mice, 10 mg/kg i.p. J1-J5
[8] = P 388, CDF 1 mice, 20 mg/kg i.p. J1-J5
[9] = Mus musculus, P388, ip, P 388, CDF 1 mice, 40 mg/kg i.p. J1-J5, read-out: T/C %
[10] = Mus musculus, P388, ip, P 388, CDF 1 mice, 2,5 mg/kg i.p. J1-J5, read-out: T/C %
[11] = P 388, CDF 1 mice, 40 mg/kg i.p. J1-J5
[12] = P 388, CDF 1 mice, 2,5 mg/kg i.p. J1-J5
[13] = L 1210, CDF₁ mice, 5 mg/kg i.p. J1-J5
[14] = L 1210, CDF₁ mice, 10 mg/kg i.p. J1-J5
[15] = L 1210, CDF₁ mice, 20 mg/kg i.p. J1-J5
[16] = L 1210, CDF₁ mice, 2,5 mg/kg i.p. J1-J5

CCN(CC)CCCNc1nc2ccccc2c2c1c1cc(OC)ccc1n2C [Dérivé N°1, (diéthylamino-3 propylamino)-6 méthoxy-8 méthyl-11 11-H indolo[3,2-c]quinoléine]
mortalité évaluée au septième jour après l'administration [1]: aucune mortalité
pIC50 [2]: 6.46
response vs control in vivo at 5 mg/kg (leucémie P 388; [3]): 142%
response vs control in vivo at 10 mg/kg (leucémie P 388; [4]): 154%
response vs control in vivo at 20 mg/kg (leucémie P 388; [5]): 142%
Nombre de survivants (leucémie P 388; [6]): 0
Nombre de survivants (leucémie P 388; [7]): 0
Nombre de survivants (leucémie P 388; [8]): 0
Variation pondérale en g (leucémie P 388; 5 mg/kg): - 0,4 g
Variation pondérale en g (leucémie P 388; 10 mg/kg): - 0,7 g
Variation pondérale en g (leucémie P 388; 20 mg/kg): - 1,2 g

CN(C)CCCNc1nc2ccccc2c2c1c1cc(O)ccc1n2C [Dérivé N°4, (diméthylamino-3 propylamino)-6 hydroxy-8 méthyl-11 11-H indolo[3,2-c]quinoléine]
pIC50 [2]: 7.40
response vs control in vivo at 5 mg/kg (leucémie P 388; [3]): 133%
response vs control in vivo at 10 mg/kg (leucémie P 388; [4]): 136%
response vs control in vivo at 20 mg/kg (leucémie P 388; [5]): 137%
response vs control in vivo at 40 mg/kg (leucémie P 388; [9]): 65%
response vs control in vivo at 2.5 mg/kg (leucémie P 388; [10]): 129%
Nombre de survivants (leucémie P 388; [6]): 0
Nombre de survivants (leucémie P 388; [7]): 0
Nombre de survivants (leucémie P 388; [8]): 0
Nombre de survivants (leucémie P 388; [11]): 0
Nombre de survivants (leucémie P 388; [12]): 0
Variation pondérale en g (leucémie P 388; 5 mg/kg): + 2,3 g
Variation pondérale en g (leucémie P 388; 10 mg/kg): + 1,3 g
Variation pondérale en g (leucémie P 388; 20 mg/kg): + 1,1 g
Variation pondérale en g (leucémie P 388; 40 mg/kg): + 3,8 g
Jour médian de survie (leucémie L 1210; [13]): 13,0
T/C % (leucémie L 1210; [13]): 158%
Nombre de survivants (leucémie L 1210; [13]): 0
Jour médian de survie (leucémie L 1210; [14]): 11,25
T/C % (leucémie L 1210; [14]): 137%
Nombre de survivants (leucémie L 1210; [14]): 0
Jour médian de survie (leucémie L 1210; [15]): 10,1
T/C % (leucémie L 1210; [15]): 123%
Nombre de survivants (leucémie L 1210; [15]): 0
Jour médian de survie (leucémie L 1210; [16]): 10,3
T/C % (leucémie L 1210; [16]): 126%
Nombre de survivants (leucémie L 1210; [16]): 0

CCN(CC)CCCNc1nc2ccccc2c2[nH]c3ccc(OC)cc3c12 [Dérivé N°5, (diéthylamino-3 propylamino)-6 méthoxy-8 11-H indolo[3,2-c]quinoléine]
mortalité évaluée au septième jour après l'administration [1]: aucune mortalité
pIC50 [2]: 6.16
response vs control in vivo at 10 mg/kg (leucémie P 388; [4]): 128%
response vs control in vivo at 20 mg/kg (leucémie P 388; [5]): 124%
response vs control in vivo at 40 mg/kg (leucémie P 388; [9]): 80%
Nombre de survivants (leucémie P 388; [7]): 0
Nombre de survivants (leucémie P 388; [8]): 0
Nombre de survivants (leucémie P 388; [11]): 0
Variation pondérale en g (leucémie P 388; 10 mg/kg): - 0,6 g
Variation pondérale en g (leucémie P 388; 20 mg/kg): + 0,8 g
Variation pondérale en g (leucémie P 388; 40 mg/kg): - 2,1 g

CN(C)CCCNc1nc2ccccc2c2[nH]c3ccc(O)cc3c12 [Dérivé N°12, (diméthylamino-3 propylamino)-6 hydroxy-8 11-H indolo [3,2-c]quinoléine]
mortalité évaluée au septième jour après l'administration [1]: aucune mortalité
pIC50 [2]: 7.10
response vs control in vivo at 5 mg/kg (leucémie P 388; [3]): 155%
response vs control in vivo at 10 mg/kg (leucémie P 388; [4]): 141%
response vs control in vivo at 0.625 mg/kg (leucémie P 388; Mus musculus, P388, ip, P 388, CDF 1 mice, 0,625 mg/kg i.p. J1-J5, read-out: T/C %): 129%
response vs control in vivo at 1.25 mg/kg (leucémie P 388; Mus musculus, P388, ip, P 388, CDF 1 mice, 1,25 mg/kg i.p. J1-J5, read-out: T/C %): 130%
response vs control in vivo at 2.5 mg/kg (leucémie P 388; [10]): 141%
Nombre de survivants (leucémie P 388; [6]): 0
Nombre de survivants (leucémie P 388; [7]): 0
Nombre de survivants (leucémie P 388; P 388, CDF 1 mice, 0,625 mg/kg i.p. J1-J5): 0
Nombre de survivants (leucémie P 388; P 388, CDF 1 mice, 1,25 mg/kg i.p. J1-J5): 0
Nombre de survivants (leucémie P 388; [12]): 0
Variation pondérale en g (leucémie P 388; 5 mg/kg): - 1,2 g
Variation pondérale en g (leucémie P 388; 10 mg/kg): - 1,7 g

Oc1ccc2[nH]c3c4ccccc4nc(NCCCN4CCOCC4)c3c2c1 [Dérivé N°15, hydroxy-8 (morpholino-3 propylamino)-6 11-H indolo[3,2-c]quinoléine]
mortalité évaluée au septième jour après l'administration [1]: aucune mortalité
pIC50 [2]: 6.55
response vs control in vivo at 5 mg/kg (leucémie P 388; [3]): 130%
response vs control in vivo at 2.5 mg/kg (leucémie P 388; [10]): 124%
Nombre de survivants (leucémie P 388; [6]): 0
Nombre de survivants (leucémie P 388; [12]): 0
Variation pondérale en g (leucémie P 388; 5 mg/kg): - 1,1 g
Jour médian de survie (leucémie L 1210; [14]): 10,2
T/C % (leucémie L 1210; [14]): 129%
Nombre de survivants (leucémie L 1210; [14]): 0

Oc1ccc2[nH]c3c4ccccc4nc(NCCCN4CCCCC4)c3c2c1 [Dérivé N°16, hydroxy-8 (pipéridino-3 propylamino)-6 11-H indolo[3,2-c]quinoléine]
mortalité évaluée au septième jour après l'administration [1]: aucune mortalité
pIC50 [2]: 6.74
response vs control in vivo at 5 mg/kg (leucémie P 388; [3]): 133%
response vs control in vivo at 10 mg/kg (leucémie P 388; [4]): 130%
response vs control in vivo at 20 mg/kg (leucémie P 388; [5]): 77%
response vs control in vivo at 2.5 mg/kg (leucémie P 388; [10]): 140%
Nombre de survivants (leucémie P 388; [7]): 0
Nombre de survivants (leucémie P 388; [8]): 0
Nombre de survivants (leucémie P 388; [12]): 0
Variation pondérale en g (leucémie P 388; 5 mg/kg): - 1,7 g
Variation pondérale en g (leucémie P 388; 10 mg/kg): - 2,5 g
Variation pondérale en g (leucémie P 388; 20 mg/kg): - 4,2 g
Jour médian de survie (leucémie L 1210; [13]): 10
T/C % (leucémie L 1210; [13]): 126%
Nombre de survivants (leucémie L 1210; [13]): 0
Jour médian de survie (leucémie L 1210; [14]): 10,4
T/C % (leucémie L 1210; [14]): 131%
Nombre de survivants (leucémie L 1210; [14]): 0
Jour médian de survie (leucémie L 1210; [15]): 10,2
T/C % (leucémie L 1210; [15]): 129%
Nombre de survivants (leucémie L 1210; [15]): 0
